For orientation: IC50 means the point on the concentration scale where inhibition reaches its midpoint. Low readings indicate greater potency, high ones weaker potency. Usually melting point stands for the temperature of the solid-liquid transition.

The record followed here is patent US9593108B2, “Compounds and methods for antiviral treatment” (PTC Therapeutics, Inc., priority 2009, dated 2017).

Structures are written as SMILES. A value given as a limit tells only on which side of the number the result lay.

The subject of data set [1] is HCV replicon RNA (GenBank Accession No. AJ242654). As to the kind of experiment: HCV Replicon Assay (replicon RNA reduction and/or Fluc reporter signal). Format: cell-based, Hepatitis C virus. Conditions: Hepatitis C virus, 72 h, replicon-containing cells cultured with test compound for up to 3 days. In a few lines:
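Bicistronic replicon-containing cells cultured with compound for up to 3 days, with interferon as positive control. Inhibition quantified by replicon RNA reduction and/or Fluc reporter signal; IC50 values generally derived from replicon RNA reduction.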

For `CCc1nc2c(cc1OC)c(C#N)c(-c1ccc(S(=O)(=O)N[C@H](C)C(F)(F)F)cn1)n2C1CCC1` [Cpd 259, 6-(3-cyano-1-cyclobutyl-6-ethyl-5-methoxy-1H-pyrrolo[2,3-b]pyridin-2-yl)-N-[(2R)-1,1,1-trifluoropropan-2-yl]pyridine-3-sulfonamide], the melting point was in the range of 189 to 199 °C. Also, in data set [1], the 50% inhibitory concentration (IC50) lay in the range of 2000 to 5000 nM.

Regarding `C[C@H](NS(=O)(=O)c1ccc(-c2c(C#N)c3cc(Cl)ncc3n2C2CCC2)nc1)C(F)(F)F` [Cpd 67, 6-(5-chloro-3-cyano-1-cyclobutyl-1H-pyrrolo[2,3-c]pyridin-2-yl)-N-[(2S)-1,1,1-trifluoropropan-2-yl]pyridine-3-sulfonamide], the melting point lay in the range of 180 to 183 °C. In addition, in data set [1], the half-inhibitory concentration (IC50) was less than 500 nM.

Molecule `C[C@H](NS(=O)(=O)c1ccc(-c2c(C#N)c3cc(F)cnc3n2-c2cnccn2)nc1)C(F)(F)F` [Cpd 321, 6-[3-cyano-5-fluoro-1-(pyrazin-2-yl)-1H-pyrrolo[2,3-b]pyridin-2-yl]-N-[(2S)-1,1,1-trifluoropropan-2-yl]pyridine-3-sulfonamide] had a melting point of 212 to 214 °C. Besides, the IC50 in data set [1] is less than 500 nM.

On to `Cc1cnc2c(C#N)c(-c3ccc(S(=O)(=O)N[C@@H](C)C(F)(F)F)cn3)n(-c3nccs3)c2c1` [Cpd 477, 6-[3-cyano-6-methyl-1-(1,3-thiazol-2-yl)-1H-pyrrolo[3,2-b]pyridin-2-yl]-N-[(2S)-1,1,1-trifluoropropan-2-yl]pyridine-3-sulfonamide], for which the melting point was in the range of 230 to 232 °C. Moreover, the 50% inhibitory concentration (IC50) in data set [1] is less than 500 nM.

For the molecule `C[C@H](NS(=O)(=O)c1cnc(-c2c(C#N)c3cc(Cl)cnc3n2C2CCCC2)nc1)C(F)(F)F` [Cpd 25, 2-(5-chloro-3-cyano-1-cyclopentyl-1H-pyrrolo[2,3-b]pyridin-2-yl)-N-[(2S)-1,1,1-trifluoropropan-2-yl]pyrimidine-5-sulfonamide], the melting point lay within 206 to 208 °C. Further, the 50% inhibitory concentration (IC50) in data set [1] was in the range of 500 to 2000 nM.

Take `C[C@H](NS(=O)(=O)c1ccc(-c2c(C(N)=O)c3cc(C(F)(F)F)cnc3n2C2CCC2)nc1)C(F)(F)F` [Cpd 304, 1-cyclobutyl-5-(trifluoromethyl)-2-(5-{[(2S)-1,1,1-trifluoropropan-2-yl]sulfamoyl}pyridin-2-yl)-1H-pyrrolo[2,3-b]pyridine-3-carboxamide]: the melting point fell in the range of 219 to 221 °C. In data set [1], the half-inhibitory concentration (IC50) is less than 500 nM.

`COc1cnc2c(c1)c(C#N)c(-c1ccc(S(=O)(=O)N[C@H](C)C(F)(F)F)cn1)n2C1CCCC1` [Cpd 268, 6-(3-cyano-1-cyclopentyl-5-methoxy-1H-pyrrolo[2,3-b]pyridin-2-yl)-N-[(2R)-1,1,1-trifluoropropan-2-yl]pyridine-3-sulfonamide] gave a melting point of 181 to 184 °C. In data set [1], this molecule had an IC50 of 500 to 2000 nM.

In turn, `CC(C)(C)S(=O)(=O)Nc1ccc(-c2c(C#N)c3cc(Cl)cnc3n2C2CCC2)cc1` [Cpd 385, N-[4-(5-chloro-3-cyano-1-cyclobutyl-1H-pyrrolo[2,3-b]pyridin-2-yl)phenyl]-2-methylpropane-2-sulfonamide] came in with a melting point of 240 to 241 °C. Also, in data set [1], the IC50 is less than 500 nM.

`Cc1cc2c(cn1)c(C#N)c(-c1ccc(S(=O)(=O)N[C@H](C)C(F)(F)F)cc1)n2C1CCC1` [Cpd 31, 4-(3-cyano-1-cyclobutyl-6-methyl-1H-pyrrolo[3,2-c]pyridin-2-yl)-N-[(2R)-1,1,1-trifluoropropan-2-yl]benzenesulfonamide] displayed a melting point of 247 to 249 °C. The molecule further came in with an IC50 in data set [1] of less than 500 nM.

`Cc1cnc2c(C#N)c(-c3ccc(S(=O)(=O)N[C@@H](C)C(F)(F)F)cn3)n(-c3ccncc3)c2c1` [Cpd 482, 6-[3-cyano-6-methyl-1-(pyridin-4-yl)-1H-pyrrolo[3,2-b]pyridin-2-yl]-N-[(2S)-1,1,1-trifluoropropan-2-yl]pyridine-3-sulfonamide] registered a melting point of 303 to 305 °C. For the same molecule, the IC50 in data set [1] is less than 500 nM.

As for `Cc1ccc2c(C#N)c(-c3ncc(S(=O)(=O)N[C@@H](C)C(F)(F)F)cn3)n(C3CCC3)c2n1` [Cpd 137, 2-(3-cyano-1-cyclobutyl-6-methyl-1H-pyrrolo[2,3-b]pyridin-2-yl)-N-[(2S)-1,1,1-trifluoropropan-2-yl]pyrimidine-5-sulfonamide], the melting point lay within 207 to 212 °C. For the same molecule, the IC50 in data set [1] is less than 500 nM.

The molecule `CC(C)(NS(=O)(=O)c1ccc(-c2c(C#N)c3cc(OC(F)F)cnc3n2C2CCC2)nc1)C(F)(F)F` [Cpd 201, 6-[3-cyano-1-cyclobutyl-5-(difluoromethoxy)-1H-pyrrolo[2,3-b]pyridin-2-yl]-N-(1,1,1-trifluoro-2-methylpropan-2-yl)pyridine-3-sulfonamide] yielded a melting point of 168 to 169 °C. Besides, in data set [1], the IC50 is less than 500 nM.

Turning to `Cc1ncc2c(C#N)c(-c3ccc(S(=O)(=O)N[C@@H](C)C4CC4)cn3)n(C3CCC3)c2n1` [Cpd 45, 6-(5-cyano-7-cyclobutyl-2-methyl-7H-pyrrolo[2,3-d]pyrimidin-6-yl)-N-[(1S)-1-cyclopropylethyl]pyridine-3-sulfonamide], the melting point lay in the range of 155 to 157 °C. Besides, the IC50 in data set [1] was less than 500 nM.

As for `Cc1cnc2c(c1)c(C#N)c(-c1ncc(S(=O)(=O)N[C@@H](C)C(F)(F)F)cc1C)n2C1CCC1` [Cpd 291, 6-(3-cyano-1-cyclobutyl-5-methyl-1H-pyrrolo[2,3-b]pyridin-2-yl)-5-methyl-N-[(2S)-1,1,1-trifluoropropan-2-yl]pyridine-3-sulfonamide], the melting point lay within 181 to 185 °C. Moreover, the concentration for half-maximal inhibition (IC50) in data set [1] is less than 500 nM.

Turning to `CC[C@H](NS(=O)(=O)c1ccc(-c2c(C#N)c3cc(Cl)cnc3n2C2CCCC2)nc1)C(F)(F)F` [Cpd 233, 6-(5-chloro-3-cyano-1-cyclopentyl-1H-pyrrolo[2,3-b]pyridin-2-yl)-N-[(2S)-1,1,1-trifluorobutan-2-yl]pyridine-3-sulfonamide], the melting point lay within 180 to 185 °C. The 50% inhibitory concentration (IC50) in data set [1] was less than 500 nM.

`N#Cc1c(-c2ncc(S(=O)(=O)NC(CF)CF)cn2)n(C2CCC2)c2ncc(C3CC3)cc12` [Cpd 132, 2-(3-cyano-1-cyclobutyl-5-cyclopropyl-1H-pyrrolo[2,3-b]pyridin-2-yl)-N-(1,3-difluoropropan-2-yl)pyrimidine-5-sulfonamide]: the melting point lay within 189 to 197 °C. In addition, in data set [1], the IC50 is less than 500 nM.

`CCCOc1cnc2c(c1)c(C#N)c(-c1ccc(S(=O)(=O)N[C@@H](C)C(F)(F)F)cn1)n2C1CCC1` [Cpd 204, 6-(3-cyano-1-cyclobutyl-5-propoxy-1H-pyrrolo[2,3-b]pyridin-2-yl)-N-[(2S)-1,1,1-trifluoropropan-2-yl]pyridine-3-sulfonamide]: the melting point is 170 to 171 °C. Besides, the IC50 in data set [1] is less than 500 nM.

For the molecule `CCc1cnc2c(c1)c(C#N)c(-c1ccc(S(=O)(=O)NC(CF)CF)cc1)n2C1CCC1` [Cpd 190, 4-(3-cyano-1-cyclobutyl-5-ethyl-1H-pyrrolo[2,3-b]pyridin-2-yl)-N-(1,3-difluoropropan-2-yl)benzenesulfonamide], the melting point was in the range of 165 to 171 °C. Also, the IC50 in data set [1] was less than 500 nM.

`CC(C)NS(=O)(=O)c1ccc(-c2c(C#N)c3cc(Cl)cnc3n2C2CCC2)cc1` [Cpd 6, 4-(5-chloro-3-cyano-1-cyclobutyl-1H-pyrrolo[2,3-b]pyridin-2-yl)-N-(propan-2-yl)benzenesulfonamide]: the melting point is 172 to 175 °C. This molecule also showed a half-inhibitory concentration (IC50) in data set [1] of less than 500 nM.

In turn, `NC(=O)c1c(-c2ccc(S(=O)(=O)NC3(C(F)(F)F)CC3)cn2)n(C2CCC2)c2ncc(C(F)F)cc12` [Cpd 472, 1-cyclobutyl-5-(difluoromethyl)-2-(5-{[1-(trifluoromethyl)cyclopropyl]sulfamoyl}pyridin-2-yl)-1H-pyrrolo[2,3-b]pyridine-3-carboxamide] registered a melting point of 210 to 212 °C. In data set [1], this molecule had an IC50 of less than 500 nM.

In the case of `COc1ccc2c(C#N)c(-c3ccc(S(=O)(=O)NC(C)(C)C)cc3)n(C3CCC3)c2n1` [Cpd 44, N-tert-butyl-4-(3-cyano-1-cyclobutyl-6-methoxy-1H-pyrrolo[2,3-b]pyridin-2-yl)benzenesulfonamide], the melting point was in the range of 155 to 157 °C. Further, in data set [1], the IC50 was less than 500 nM.

As for `Cc1ccc2c(C#N)c(-c3ccc(S(=O)(=O)N[C@@H](C)C(F)(F)F)cc3)n(C3CCC3)c2n1` [Cpd 90, 4-(3-cyano-1-cyclobutyl-6-methyl-1H-pyrrolo[2,3-b]pyridin-2-yl)-N-[(2S)-1,1,1-trifluoropropan-2-yl]benzenesulfonamide], the melting point lay in the range of 169 to 177 °C. In data set [1], this molecule gave an IC50 of less than 500 nM.

`CC(C)NS(=O)(=O)c1ccc(-c2c(C#N)c3cc(C(F)F)cnc3n2C2CCC2)nc1` [Cpd 455, 6-[3-cyano-1-cyclobutyl-5-(difluoromethyl)-1H-pyrrolo[2,3-b]pyridin-2-yl]-N-(propan-2-yl)pyridine-3-sulfonamide] had a melting point of 189 to 190 °C. Also, the IC50 in data set [1] is less than 500 nM.

`CC(C)NS(=O)(=O)c1ccc(-c2c(C#N)c3cc(Cl)cnc3n2CC2CC2)cc1` [Cpd 1, 4-[5-chloro-3-cyano-1-(cyclopropylmethyl)-1H-pyrrolo[2,3-b]pyridin-2-yl]-N-(propan-2-yl)benzenesulfonamide] showed a melting point of 113 to 116 °C. In data set [1], this molecule gave an IC50 of less than 500 nM.

`NC(=O)c1c(-c2ccc(S(=O)(=O)NC3(C(F)(F)F)CC3)cc2)n(C2CCCCC2)c2ncc(C(F)(F)F)cc12` [Cpd 441, 1-cyclohexyl-5-(trifluoromethyl)-2-(4-{[1-(trifluoromethyl)cyclopropyl]sulfamoyl}phenyl)-1H-pyrrolo[2,3-b]pyridine-3-carboxamide] had a melting point of 303 to 306 °C. Further, the half-inhibitory concentration (IC50) in data set [1] was less than 500 nM.
